Results from the NIST ThermoML archive (doi:10.1021/je101178u).
“And” between values parts separate entries of the source, which are not always exact repeats. Equal entries are not always repeated.

Details: Fluid (supercritical or subcritical phases); for mass density: Buoyancy - hydrostatic balance with magnetic suspension - one sinker; for viscosity: vibrating wire

CCC [propane]
Details	mass density	viscosity
273.15 K, 40.93 kPa	0.80164 kg/m3	0.00744 mPa·s
273.15 K, 51.05 kPa	1.002 kg/m3	0.007443 mPa·s
273.15 K, 100.76 kPa	1.999 kg/m3	0.007443 mPa·s
273.15 K, 149.62 kPa	3.0011 kg/m3	0.007435 mPa·s
273.15 K, 196.97 kPa	3.9945 kg/m3	0.007431 mPa·s
273.15 K, 243.87 kPa	5.0016 kg/m3	0.007424 mPa·s
273.15 K, 289.3 kPa	6.0007 kg/m3	0.007419 mPa·s
273.15 K, 333.56 kPa	6.9977 kg/m3	0.007415 mPa·s
273.15 K, 376.67 kPa	7.9933 kg/m3	0.00741 mPa·s
273.15 K, 420.03 kPa	9.0207 kg/m3	0.007406 mPa·s
273.15 K, 459.55 kPa	9.9815 kg/m3	0.007404 mPa·s
273.15 K, 459.58 kPa	9.9822 kg/m3	0.007403 mPa·s
298.15 K, 44.7 kPa	0.80087 kg/m3	0.008128 mPa·s
298.15 K, 55.55 kPa	0.99693 kg/m3	0.008133 mPa·s
298.15 K, 110.39 kPa	1.9989 kg/m3	0.00813 mPa·s
298.15 K, 164.09 kPa	2.9981 kg/m3	0.008127 mPa·s
298.15 K, 164.66 kPa	3.0089 kg/m3	0.008126 mPa·s
298.15 K, 217.05 kPa	4.0022 kg/m3	0.008127 mPa·s
298.15 K, 217.09 kPa	4.0029 kg/m3	0.008128 mPa·s
298.15 K, 268.78 kPa	5.0013 kg/m3	0.008125 mPa·s
298.15 K, 318.03 kPa	5.9708 kg/m3	0.008125 mPa·s
298.15 K, 369.4 kPa	7.0017 kg/m3	0.00813 mPa·s
298.15 K, 418.44 kPa	8.0059 kg/m3	0.008126 mPa·s
298.15 K, 464.73 kPa	8.9725 kg/m3	0.008128 mPa·s
298.15 K, 498.81 kPa	9.6967 kg/m3	0.008126 mPa·s
298.15 K, 513.59 kPa	10.014 kg/m3	0.008121 mPa·s
298.15 K, 559.93 kPa	11.023 kg/m3	0.008129 mPa·s
298.15 K, 600.75 kPa	11.93 kg/m3	0.008132 mPa·s
298.15 K, 604 kPa	12.003 kg/m3	0.008127 mPa·s
298.15 K, 646.36 kPa	12.965 kg/m3	0.008128 mPa·s and 0.00813 mPa·s
298.15 K, 691.04 kPa	14.002 kg/m3	0.008132 mPa·s
298.15 K, 692.19 kPa	14.029 kg/m3	0.008133 mPa·s
298.15 K, 783.49 kPa	16.228 kg/m3	0.008144 mPa·s
298.15 K, 849.03 kPa	17.879 kg/m3	0.00815 mPa·s
298.15 K, 875.16 kPa	18.556 kg/m3	0.008155 mPa·s
298.15 K, 878.68 kPa	18.648 kg/m3	0.008158 mPa·s
366.15 K, 68.97 kPa	1.0047 kg/m3	0.009907 mPa·s
366.15 K, 136.86 kPa	2.0051 kg/m3	0.009923 mPa·s
366.15 K, 270.35 kPa	4.0067 kg/m3	0.009941 mPa·s
366.15 K, 400.53 kPa	6.0046 kg/m3	0.009956 mPa·s
366.15 K, 527.04 kPa	7.9924 kg/m3	0.009974 mPa·s
366.15 K, 649.96 kPa	9.9702 kg/m3	0.009996 mPa·s
366.15 K, 772.49 kPa	11.99 kg/m3	0.01002 mPa·s
366.15 K, 897.82 kPa	14.109 kg/m3	0.01005 mPa·s
366.15 K, 1004.8 kPa	15.963 kg/m3	0.01007 mPa·s
366.15 K, 1119.8 kPa	18.006 kg/m3	0.0101 mPa·s
366.15 K, 1222.3 kPa	19.872 kg/m3	0.01013 mPa·s
366.15 K, 1738.7 kPa	30.044 kg/m3	0.01032 mPa·s
366.15 K, 2181.8 kPa	40.086 kg/m3	0.01055 mPa·s
366.15 K, 2559.1 kPa	50.015 kg/m3	0.01083 mPa·s
366.15 K, 2883 kPa	60.029 kg/m3	0.01114 mPa·s
366.15 K, 3154.4 kPa	70.033 kg/m3	0.01149 mPa·s
366.15 K, 3381.1 kPa	80.175 kg/m3	0.0119 mPa·s
366.15 K, 3559.5 kPa	90.05 kg/m3	0.01232 mPa·s
366.15 K, 3704.1 kPa	100.205 kg/m3	0.01282 mPa·s
366.15 K, 3704.9 kPa	100.267 kg/m3	0.01282 mPa·s
373.15 K, 70 kPa	1.0004 kg/m3	0.01008 mPa·s
373.15 K, 139.24 kPa	2.0008 kg/m3	0.0101 mPa·s
373.15 K, 275.58 kPa	4.0037 kg/m3	0.01012 mPa·s
373.15 K, 408.76 kPa	6.0045 kg/m3	0.01014 mPa·s
373.15 K, 538.6 kPa	7.9996 kg/m3	0.01017 mPa·s
373.15 K, 666.93 kPa	10.017 kg/m3	0.0102 mPa·s
373.15 K, 733.66 kPa	11.085 kg/m3	0.01021 mPa·s
373.15 K, 917.57 kPa	14.099 kg/m3	0.01026 mPa·s
373.15 K, 1023.3 kPa	15.881 kg/m3	0.01029 mPa·s
373.15 K, 1147.8 kPa	18.031 kg/m3	0.01033 mPa·s
373.15 K, 1248 kPa	19.801 kg/m3	0.01036 mPa·s
373.15 K, 1781.8 kPa	29.954 kg/m3	0.01058 mPa·s
373.15 K, 1781.9 kPa	29.957 kg/m3	0.01058 mPa·s
373.15 K, 2244.2 kPa	39.982 kg/m3	0.01083 mPa·s
373.15 K, 2244.5 kPa	39.99 kg/m3	0.01084 mPa·s
373.15 K, 2640.8 kPa	49.856 kg/m3	0.01113 mPa·s
373.15 K, 2640.9 kPa	49.858 kg/m3	0.01113 mPa·s
373.15 K, 2984.3 kPa	59.751 kg/m3	0.01146 mPa·s
373.15 K, 2984.4 kPa	59.753 kg/m3	0.01146 mPa·s
373.15 K, 3288.7 kPa	70.03 kg/m3	0.01186 mPa·s
373.15 K, 3289 kPa	70.041 kg/m3	0.01186 mPa·s
373.15 K, 3531.3 kPa	79.736 kg/m3	0.01227 mPa·s
373.15 K, 3531.6 kPa	79.746 kg/m3	0.01227 mPa·s
373.15 K, 3739.8 kPa	89.698 kg/m3	0.01273 mPa·s
373.15 K, 3740.2 kPa	89.72 kg/m3	0.01273 mPa·s
373.15 K, 3909.1 kPa	99.505 kg/m3	0.01323 mPa·s
373.15 K, 3909.3 kPa	99.518 kg/m3	0.01323 mPa·s
373.15 K, 4152.5 kPa	118.628 kg/m3	0.01431 mPa·s
373.15 K, 4152.6 kPa	118.636 kg/m3	0.01431 mPa·s
373.15 K, 4314.6 kPa	139.152 kg/m3 and 139.148 kg/m3	0.01561 mPa·s
373.15 K, 4400.6 kPa	157.919 kg/m3	0.01691 mPa·s
373.15 K, 4400.7 kPa	157.947 kg/m3	0.01692 mPa·s
373.15 K, 4432.9 kPa	169.072 kg/m3 and 169.051 kg/m3 and 169.087 kg/m3	0.01772 mPa·s and 0.01773 mPa·s
373.15 K, 4458.2 kPa	181.456 kg/m3 and 181.487 kg/m3	0.01876 mPa·s
373.15 K, 4477.3 kPa	194.68 kg/m3	0.02002 mPa·s
373.15 K, 4477.4 kPa	194.74 kg/m3	0.02003 mPa·s
373.15 K, 4491.9 kPa	207.584 kg/m3	0.02135 mPa·s
373.15 K, 4492 kPa	207.643 kg/m3	0.02135 mPa·s
373.15 K, 4502.7 kPa	218.095 kg/m3 and 218.113 kg/m3	0.02247 mPa·s
373.15 K, 4512.2 kPa	227.171 kg/m3 and 227.14 kg/m3	0.02347 mPa·s
373.15 K, 4515 kPa	229.692 kg/m3	0.02376 mPa·s
